Laboratory results taken from patent US12491233B2, “Pharmaceutical composition, for preventing or treating Charcot-Marie-Tooth disorder, comprising mesenchymal stem cells or insulin secreted by mesenchymal stem cells” (SAMSUNG LIFE PUBLIC WELFARE FOUNDATION, priority 2020, dated 2025).

Legend:
[1] = system: ERK and Akt pathways; test: Western blot of P-ERK1/2, ERK1/2, P-AKT, AKT in insulin-treated Schwann cells; format: cell-based; conditions: 100 nM insulin, 24 hours
Experimental: After the cultured Schwann cells were treated with 100 nM insulin protein, the cells were harvested after 24 hours, and then the pellets were added in RIPA buffer, and the cells were disrupted using a sonicator and then centrifuged at 13,000 rpm at 4° C. for 15 minutes. Only the supernatant was subjected to protein quantification, and then 30 μg of proteins was loaded onto SDS-PAGE gel. Thereafter, the gel loaded on PVDF was transferred and then blocked with 5% skim milk for 1 hour, and then P-ERK1/2, ERK1/2, P-AKT, AKT, and β-actin antibodies were attached thereto at 4° C. for 24 hours. After the HRP-linked secondary antibody reaction and the washing process were performed, the bands of proteins were checked by using ECL solution.

[2] = system: MPZ; test: MPZ in sciatic nerve tissue by confocal microscope; format: in vivo, mice; conditions: 12 U/kg intravenously, after two weeks, WT = 1, sham 0.20
Text: (§1) 5-Week-old Charcot-Marie-Tooth disease mice were intravenously administered with 12 U/kg insulin, and after two weeks, the sciatic nerve tissue was collected and observed through a confocal microscope in Example 7, and the results are shown in FIG. 8D and Table 14.

[3] = system: Charcot-Marie-Tooth disease mice; test: MRI of gastrocnemius muscle tissue, cross-sectional area and volume; format: in vivo; conditions: 12 U/kg intravenously, after two weeks; for CSA: MRI; for Volume: from cross-sectional area
Experimental: 5-Week-old Charcot-Marie-Tooth disease mice were intravenously administered with 12 U/kg insulin and, after two weeks, the gastrocnemius muscle tissue was observed by the MRI system. In addition, the cross-sectional area of the muscle tissue was measured to obtain the volume of the muscle tissue, and the results are shown in FIG. 9E and Table 18.

[4] = system: Charcot-Marie-Tooth disease mice; test: Myelination of sciatic nerve tissue by transmission electron microscope; format: in vivo
Text: as §1, with “observed by the same method as in the histological analysis” for “observed”, “transmission electron” for “confocal”, “FIGS. 8A to 8C” for “FIG. 8D”, “Tables 12 and 13.” for “Table 14.”

[5] = system: Schwann cells; test: ATP measurement, CellTiter-Glo Luminescent Cell Viability Assay; format: cell-based; conditions: relative to 0 nM = 1
Experimental: (§2) The cultured Schwann cells were treated with insulin at 0, 1, 10, 50, 100, 200, 500, or 1000 nM, and then the degree of cell proliferation was determined by measurement of the absorbance at 450 nm using a spectrophotometer by using the CCK-8 (Dojindo) test method. ATP was measured using the CellTiter-Glo Luminescent Cell Viability Assay (Promega Corporation), and finally, 5-bromo-2′-deoxyuridine (BrdU) bound during DNA synthesis in cells was identified. In this test method, analysis was performed using Cell Proliferation ELISA, BrdU (colorimetric) (Roche). BrdU was added to the cells, followed by incubation for 24 hours, and then the cells were fixed, followed by DNA denaturation, and then treated with Anti-BrdU antibody. The cells were incubated with TMB substrate by using HRP-linked secondary antibody, and the absorbance at 370 nm was measured in a spectrophotometer.

[6] = system: Dystrophin; test: Myogenesis of gastrocnemius muscle tissue, dystrophin fluorescent antibody; format: in vivo, mice
Experimental: 5-Week-old Charcot-Marie-Tooth disease mice were intravenously administered with 12 U/kg insulin, and after two weeks, the gastrocnemius muscle tissue was collected. Then, the increase in myogenesis was measured using the dystrophin antibody by the same method as in protein expression analysis using a fluorescent antibody in Example 7, and the results are shown in FIGS. 9A and 9B and Table 16.

[7] = system: Schwann cells; test: BrdU Cell Proliferation ELISA (colorimetric); format: cell-based; conditions: relative to 0 nM = 1
Experimental: as §2

[8] = system: Charcot-Marie-Tooth disease mice; test: Rotarod testing in Charcot-Marie-Tooth disease mice; format: in vivo
Text: 5-Week-old Charcot-Marie-Tooth disease mice were intravenously administered with 12 U/kg insulin and, after two weeks, examined for behavioral performance increase through rotarod testing as in Example 5.

[9] = system: Schwann cells; test: CCK-8 cell proliferation of insulin-treated Schwann cells; format: cell-based; conditions: for CCK-8: relative to 0 nM = 1
Experimental: as §2

[10] = system: MPZ; test: MPZ expression level in sciatic nerve tissue by western blotting; format: in vivo, mice; conditions: 12 U/kg intravenously, after two weeks, WT = 100, sham 3.84
Experimental: 5-Week-old Charcot-Marie-Tooth disease mice were intravenously administered with 12 U/kg insulin, and after two weeks, the sciatic nerve tissue was collected and then the MPZ expression level was determined using MPZ antibody by the same method as in protein expression analysis through western blotting in Example 3, and the results are shown in FIGS. 8F and 8G and Table 15.

[11] = system: Charcot-Marie-Tooth disease mice; test: Grip strength testing in Charcot-Marie-Tooth disease mice; format: in vivo; conditions: 5-week-old CMT mice, 12 U/kg intravenously, after two weeks; WT 8.9, sham 6.2
Text: 5-Week-old Charcot-Marie-Tooth disease mice were intravenously administered with 12 U/kg insulin and, after two weeks, examined for behavioral performance increase through grip strength testing as in Example 5.

[12] = system: PMP22; test: PMP22 gene expression in sciatic nerve tissue by qRT-PCR; format: in vivo, mice
Experimental: In addition, it was examined using qRT-PCR analysis whether specific genes observable in each type of differentiated cells were expressed in differentiated adipocytes and chondrocytes. Non-differentiated cells and differentiated cells were harvested and the total RNA was extracted from the cell pellets using TRIZOL. The pellets were completely dissolved in 1 mL of TRIZOL, and then 0.2 mL of chloroform was added thereto, followed by shaking for 15 seconds and then standing at room temperature for 3 minutes. The resultant product was then separated into the bottom layer phenol-chloroform, the intermediate layer, and the upper layer colorless aqueous solution by centrifugation at 13,000 rpm and 4° C. for 15 minutes, and of these, only the upper layer colorless aqueous solution was separately collected and transferred into a new tube. After 0.5 mL of isopropyl alcohol was added to the tube and then vigorously mixed, the mixture was left at room temperature for 5 minutes. The resultant solution was again centrifuged at 13,000 rpm and 4° C. for 10 minutes, and the supernatant was discarded. Thereafter, 75% ethanol was added to pellets and again vigorously mixed, followed by centrifugation. The upper layer was discarded, and RNA pellets were dried for 5-10 minutes and dissolved in RNase-free water. […]

## insulin
[1]
  activation of proliferation potency of Schwann cells through ERK and Akt pathways: activated the proliferation potency of Schwann cells through ERK and Akt pathways
[2]
  MPZ: 0.69
[3]; Left gastrocnemius muscle, sham 0.302
  CSA: 0.343
[3]; Left gastrocnemius muscle, sham 2.533
  Volume: 2.879
[3]; Right gastrocnemius muscle, sham 0.290
  CSA: 0.323
[3]; Right gastrocnemius muscle, sham 2.438
  Volume: 2.712
[4]; in words, FIGS. 8A to 8G
  myelination: increased myelination
[4]; sciatic nerve, TEM, 12 U/kg intravenously, after two weeks, WT = 100, sham 13.59
  myelination: 82.99
[4]; thickness of myelination, sciatic nerve, TEM, 12 U/kg intravenously, after two weeks, WT 3.32, sham 0.67
  Thickness: 2.53
[5]; insulin 1 nM
  ATP: 1.08
[5]; insulin 10 nM
  ATP: 1.13
[5]; insulin 50 nM
  ATP: 1.20
[5]; insulin 100 nM
  ATP: 1.23
[5]; insulin 200 nM
  ATP: 1.18
[5]; insulin 500 nM
  ATP: 1.22
[5]; insulin 1000 nM
  ATP: 1.06
[6]; gastrocnemius muscle, 12 U/kg intravenously, after two weeks, WT = 1, sham 0.27
  Dystrophin: 0.94
[6]; in words, FIGS. 9A to 9E
  myogenesis: increased myogenesis
[7]; insulin 1 nM
  BrdU: 1.13
[7]; insulin 10 nM
  BrdU: 1.32
[7]; insulin 50 nM
  BrdU: 1.39
[7]; insulin 100 nM
  BrdU: 1.51
[7]; insulin 200 nM
  BrdU: 1.50
[7]; insulin 500 nM
  BrdU: 1.36
[7]; insulin 1000 nM
  BrdU: 1.44
[8]; 5-week-old CMT mice, 12 U/kg intravenously, after two weeks, WT 112.3, sham 27.8
  Rotarod: 67.9
[8]; rotarod and grip strength, in words
  behavioral performance of the mice: increased the behavioral performance
[9]; from CCK-8, ATP and BrdU tests, 0-1000 nM
  optimum concentration for increasing the proliferation capacity of Schwann cells: 100 nM
[9]; insulin 1 nM
  CCK-8: 1.03
[9]; insulin 10 nM
  CCK-8: 1.09
[9]; insulin 50 nM
  CCK-8: 1.16
[9]; insulin 100 nM
  CCK-8: 1.18
[9]; insulin 200 nM
  CCK-8: 1.19
[9]; insulin 500 nM
  CCK-8: 1.21
[9]; insulin 1000 nM
  CCK-8: 1.21
[10]
  MPZ: 44.12
[11]
  Grip Strength: 7.7
[12]; in words
  PMP22 expression levels: reduced the PMP22 expression levels
[12]; sciatic nerve, 12 U/kg intravenously, after two weeks, WT = 1, sham 1305.36
  PMP22: 986.69
